Laboratory results from patent publication US20120029187A1, “HALOALKYLSULFONANILIDE DERIVATIVE” (Nissan Chemical Industries, Ltd., priority 2009, published 2012).

Key:
Assay type in all cases: in vivo
[1] = test system: barnyardgrass; experiment: Test Example 1: herbicidal effects in preemergence treatment under submerged conditions; conditions: dose 2.52 g/a
Method in brief: (§1)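 Scoring 0 (<5% mortality) to 5 (≥90%) was done three weeks after preemergence application to the water surface of submerged (4 cm) alluvial soil, doses given as g per are. Weeds were seeded and 2.5-leaf rice transplanted on the treatment day; greenhouse at 25–30 °C.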

[2] = test system: bulrush; experiment: as above; conditions: dose 2.52 g/a
Method in brief: as §1

[3] = test system: ducksalad; experiment: as above; conditions: dose 2.52 g/a
Method in brief: as §1

[4] = test system: transplanted rice; experiment: Test Example 1: preemergence treatment under submerged conditions, effect on crop; conditions: dose 2.52 g/a
Method in brief: as §1

[5] = test system: barnyardgrass; experiment: Test Example 2: herbicidal effects during the vegetation period under submerged conditions; conditions: treatment during the vegetation period under submerged conditions; dose 2.52 g/a
Method in brief: (§2)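 Barnyardgrass, bulrush and ducksalad were co-sown in alluvial soil flooded to 4 cm and grown in a greenhouse at 25 to 30° C. At the 1- or 2-leaf stage, water-diluted emulsifiable concentrates went onto the water surface at set doses (g/a). Herbicidal effect was scored three weeks later on a graded scale.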

[6] = test system: bulrush; experiment: as above; conditions: treatment during the vegetation period under submerged conditions; dose 2.52 g/a
Method in brief: as §2

[7] = test system: ducksalad; experiment: as above; conditions: treatment during the vegetation period under submerged conditions; dose 2.52 g/a
Method in brief: as §2

[8] = test system: Italian ryegrass; experiment: Test Example 3: herbicidal effects in soil treatment; conditions: dose 6.3 g/a
Method in brief: (§3)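 Seeds were sown in sterilized diluvial soil and covered with about 1.5 cm of soil. Compounds, formulated as emulsifiable concentrates and diluted with water, were sprayed evenly over the soil surface at set doses in g/a. Herbicidal effect was scored on a rating scale three weeks later.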

[9] = test system: barnyardgrass; experiment: as above; conditions: dose 6.3 g/a
Method in brief: as §3

[10] = test system: common chickweed; experiment: as above; conditions: dose 6.3 g/a
Method in brief: as §3

[11] = test system: common lambsquater; experiment: as above; conditions: dose 6.3 g/a
Method in brief: as §3

[12] = test system: common ragweed; experiment: as above; conditions: dose 6.3 g/a
Method in brief: as §3

[13] = test system: giant foxtail; experiment: as above; conditions: dose 6.3 g/a
Method in brief: as §3

[14] = test system: large crabgrass; experiment: as above; conditions: dose 6.3 g/a
Method in brief: as §3

[15] = test system: posumbu knotweed; experiment: as above; conditions: dose 6.3 g/a
Method in brief: as §3

[16] = test system: redroot pigweed; experiment: as above; conditions: dose 6.3 g/a
Method in brief: as §3

[17] = test system: velvetleaf; experiment: as above; conditions: dose 6.3 g/a
Method in brief: as §3

[18] = test system: water foxtail; experiment: as above; conditions: dose 6.3 g/a
Method in brief: as §3

[19] = test system: wild oat; experiment: as above; conditions: dose 6.3 g/a
Method in brief: as §3

[20] = test system: Italian ryegrass; experiment: Test Example 4: herbicidal effect in foliage treatment; conditions: dose 6.3 g/a, three weeks after application
Method in brief: (§4)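 Herbicidal effect was rated on an evaluation scale three weeks after treatment. Plants had been raised 14 days at 25 to 30° C in sterilized diluvial soil, then received foliar sprays of emulsifiable concentrate diluted in water at predetermined doses expressed as g per are.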

[21] = test system: barnyardgrass; experiment: as above; conditions: dose 6.3 g/a, three weeks after application
Method in brief: as §4

[22] = test system: beadstraw; experiment: as above; conditions: dose 6.3 g/a, three weeks after application
Method in brief: as §4

[23] = test system: common chickweed; experiment: as above; conditions: dose 6.3 g/a, three weeks after application
Method in brief: as §4

[24] = test system: common lambsquater; experiment: as above; conditions: dose 6.3 g/a, three weeks after application
Method in brief: as §4

[25] = test system: common ragweed; experiment: as above; conditions: dose 6.3 g/a, three weeks after application
Method in brief: as §4

[26] = test system: giant foxtail; experiment: as above; conditions: dose 6.3 g/a, three weeks after application
Method in brief: as §4

[27] = test system: large crabgrass; experiment: as above; conditions: dose 6.3 g/a, three weeks after application
Method in brief: as §4

[28] = test system: posumbu knotweed; experiment: as above; conditions: dose 6.3 g/a, three weeks after application
Method in brief: as §4

[29] = test system: redroot pigweed; experiment: as above; conditions: dose 6.3 g/a, three weeks after application
Method in brief: as §4

[30] = test system: velvetleaf; experiment: as above; conditions: dose 6.3 g/a, three weeks after application
Method in brief: as §4

[31] = test system: water foxtail; experiment: as above; conditions: dose 6.3 g/a, three weeks after application
Method in brief: as §4

[32] = test system: wild oat; experiment: as above; conditions: dose 6.3 g/a, three weeks after application
Method in brief: as §4

## CCOC(=O)N(c1ccccc1CN1COCCC1=O)S(=O)(=O)C(F)(F)F [II-2]
[1]
  A: barnyardgrass, herbicidal effect (evaluation scale 0-5): 5 (mortality of 90% or above (nearly complete death))
[2]
  B: bulrush, herbicidal effect (evaluation scale 0-5): 5 (mortality of 90% or above (nearly complete death))
[3]
  C: ducksalad, herbicidal effect (evaluation scale 0-5): 5 (mortality of 90% or above (nearly complete death))
[4]
  a: transplanted rice, effect on crop (evaluation scale 0-5): 1 (mortality of at least 5% and less than 20%)
[5]
  A: barnyardgrass, herbicidal effect (evaluation scale 0-5): 5 (mortality of 90% or above (nearly complete death))
[6]
  B: bulrush, herbicidal effect (evaluation scale 0-5): 5 (mortality of 90% or above (nearly complete death))
[7]
  C: ducksalad, herbicidal effect (evaluation scale 0-5): 4 (mortality of at least 70% and less than 90%)
[8]
  H: Italian ryegrass, herbicidal effect (evaluation scale 0-5): 4 (mortality of at least 70% and less than 90%)
[9]
  A: barnyardgrass, herbicidal effect (evaluation scale 0-5): 5 (mortality of 90% or above (nearly complete death))
[10]
  N: common chickweed, herbicidal effect (evaluation scale 0-5): 5 (mortality of 90% or above (nearly complete death))
[11]
  L: common lambsquater, herbicidal effect (evaluation scale 0-5): 5 (mortality of 90% or above (nearly complete death))
[12]
  J: common ragweed, herbicidal effect (evaluation scale 0-5): 5 (mortality of 90% or above (nearly complete death))
[13]
  E: giant foxtail, herbicidal effect (evaluation scale 0-5): 5 (mortality of 90% or above (nearly complete death))
[14]
  D: large crabgrass, herbicidal effect (evaluation scale 0-5): 5 (mortality of 90% or above (nearly complete death))
[15]
  M: posumbu knotweed, herbicidal effect (evaluation scale 0-5): 1 (mortality of at least 5% and less than 20%)
[16]
  K: redroot pigweed, herbicidal effect (evaluation scale 0-5): 0 (mortality of less than 5% (almost ineffective))
[17]
  I: velvetleaf, herbicidal effect (evaluation scale 0-5): 5 (mortality of 90% or above (nearly complete death))
[18]
  G: water foxtail, herbicidal effect (evaluation scale 0-5): 5 (mortality of 90% or above (nearly complete death))
[19]
  F: wild oat, herbicidal effect (evaluation scale 0-5): 0 (mortality of less than 5% (almost ineffective))
[20]
  H: Italian ryegrass, herbicidal effect: 4 (mortality of at least 70% and less than 90%)
[21]
  A: barnyardgrass, herbicidal effect: 5 (mortality of 90% or above (nearly complete death))
[22]
  O: beadstraw, herbicidal effect: 4 (mortality of at least 70% and less than 90%)
[23]
  N: common chickweed, herbicidal effect: 3 (mortality of at least 40% and less than 70%)
[24]
  L: common lambsquater, herbicidal effect: 4 (mortality of at least 70% and less than 90%)
[25]
  J: common ragweed, herbicidal effect: 4 (mortality of at least 70% and less than 90%)
[26]
  E: giant foxtail, herbicidal effect: 5 (mortality of 90% or above (nearly complete death))
[27]
  D: large crabgrass, herbicidal effect: 5 (mortality of 90% or above (nearly complete death))
[28]
  M: posumbu knotweed, herbicidal effect: 3 (mortality of at least 40% and less than 70%)
[29]
  K: redroot pigweed, herbicidal effect: 0 (mortality of less than 5% (almost ineffective))
[30]
  I: velvetleaf, herbicidal effect: 5 (mortality of 90% or above (nearly complete death))
[31]
  G: water foxtail, herbicidal effect: 5 (mortality of 90% or above (nearly complete death))
[32]
  F: wild oat, herbicidal effect: 0 (mortality of less than 5% (almost ineffective))
